The results in this text go back to patent US8435778B2, “Gene encoding lignan methyltransferase and use thereof” (Suntory Holdings Limited, priority 2010, dated 2013).

Each structure is given as a SMILES string.

This assay concerns AsOMT116. Nature of the assay: Enzyme reaction of crude recombinant AsOMT116 with thujaplicatin and S-adenosylmethionine, product analysed by GC-MS. The settings on record: 0.01 mM substrate, 0.04 mM S-adenosylmethionine, about 3 mg crude enzyme from E. coli, pH 7.5, 30° C., one hour; product identified as 5-methylthujaplicatin by GC-MS. In kind it is biochemical, Anthrissus sylvestris. The method, then: To clarify the biochemical enzyme functions, the enzymes were expressed in Escherichia coli. Using the plasmid for expression of AsOMT116 Escherichia coli obtained above, Escherichia coli BL21 (DE3) strain was transformed in a conventional manner. The resulting transformants were inoculated in 4 ml of LB medium (10 g/l tryptone peptone, 5 g/l yeast extract, 1 g/l NaCl) containing 50 μg/ml of ampicillin followed by shake culture at 37° C. overnight. When the cells reached the stationary phase, 4 ml of the culture broth was inoculated into 80 ml of fresh medium of the same composition, followed by shake culture at 37° C. At the point when the cell turbidity (OD600) reached approximately 0.5, 0.5 mM IPTG in a final concentration was added to the cells, followed by shake culture at 18° C. for 20 hours.
The following procedures were all carried out at 4° C. The transformants cultured were collected by centrifugation (5,000×g, 10 minutes) and suspended by adding 1 ml/g cell of lysis buffer (20 mM HEPES buffer (pH 7.5), 14 mM β-mercaptoethanol). Subsequently, the suspension was ultrasonicated (15 secs.×8 times) and then centrifuged (15,000×g, 15 minutes). The supernatant (soluble fraction) obtained was recovered as a crude enzyme solution. The crude enzyme solution was used for enzyme analysis.
Conditions for the enzyme reaction are as follows. […]

With `COc1cc(C[C@H]2COC(=O)[C@@H]2Cc2cc(O)c(O)c(OC)c2)ccc1O` [thujaplicatin], the “lignan methylation activity (methylation of substrate by AsOMT116)” value is on record as “specifically methylates the 5-position”.
